The record followed here is patent publication US11649245B2, “Cyclopropylamine compound as LSD1 inhibitor and use thereof” (HELIOEAST PHARMACEUTICAL CO., LTD., priority 2018, dated 2023).

Structures can show the parent of a compound that is named as a salt. Where two headings read alike, the source gives them in different places.

For data set [1], the target named is human LSD1 (Homo sapiens, UniProt O60341). Put plainly: In vitro enzyme activity screening against LSD1 (HRP/Amplex Red fluorescence coupling enzyme method). Type of data set: biochemical. As to conditions: human LSD1, histone H3K4me peptide substrate 20 μM. Here is the method: The purpose of this test was to detect the in vitro inhibitory activity of the compounds against LSD1. The enzyme used in this test was human LSD1, the standard substrate was histone H3K4me peptide (20 μM), the fluorescence coupling enzyme method was used to determine the activity of the compound by combining horseradish peroxidase (HRP) and fluorescent reagent Amplex Red to detect the H2O2 generation as a result of the reaction of LSD1. Compounds were tested in 10-dose IC50 mode with a 3-fold serial dilution starting at 10 μM. The enzyme and […] to start the reaction. Fluorescence detector: Envision, excitation wavelength: Ex/Em=530/590 […]

Data set [2] relates to NCI-H1417 cells. The data set is described as follows: Antiproliferation activity on NCI-H1417 cells (CellTiter-Glo, 10 days). It counts as cell-based, human. Particulars: incubated for 10 days. On the procedure:
Experimental purpose: to detect the antiproliferation activity of the compounds on NCI-H1417 cells.
Experimental materials: RPMI 1640 culture medium, fetal bovine serum, Promega CellTiter-Glo reagent. NCI-H1417 cell line purchased from ATCC. Envision multi-label reader (PerkinElmer).
Experimental method: the compounds were dissolved to 10 mM, then the compounds were diluted 5 times with DMSO in a compound plate, the compounds were diluted 3-fold with Bravo from a starting concentration of 2 mM to the 10th concentration, 250 nL of the solutions were transferred to the upper and lower duplicate wells on a blank 384 cell plate by Echo transfer plate, cell suspension of per well/1000 cells/50 μL was added to the transferred 250 nL DMSO/compound, the compounds were diluted 200-fold, i.e., the initial action concentration was 10 μM. The cell plate was placed in a carbon dioxide incubator and incubated for 10 days. 25 μL of Promega CellTiter-Glo reagent was added to each well on the cell plate and was shaken at room temperature for 10 minutes to stabilize the luminescence signal. Readings were performed by PerkinElmer Envision multi-label analyzer.
Data analysis: the equation (Max-Ratio)/(Max-Min)*100% was used to convert the original data into the inhibition rate, the value of IC50 can be obtained by curve fitting of four-parameters (the 205 mode in XLFITS, iDBS).

For data set [3], the system named is HL60 cells. The data set is described as follows: Antiproliferation activity on HL60 cells (CellTiter-Glo, 6 days). It counts as cell-based. Particulars: incubated for 6 days. From the text: Experimental purpose: to detect the antiproliferation activity of the compound to be tested on HL60 cells.
Experimental materials: RPMI-1640 culture medium, fetal bovine serum, penicillin/streptomycin antibiotics purchased from Wisent. CellTiter-Glo (chemiluminescent cell viability assay reagent) reagents purchased from Promega. HL60 cell line purchased from Nanjing Cobioer Co., Ltd. Nivo multi-label reader (PerkinElmer).
Experimental method: HL60 cells were planted in a white 384-well plate, 40 μL of cell suspension per well, 600 HL60 cells were contained therein. The cell plate was placed in a carbon dioxide incubator for overnight culture. The compounds to be tested were diluted 5-fold with a pipet until the 10th concentration, i.e., diluted from 2 mM to 1.024 nM, double duplicate well experiment was set. 78 μL of the culture medium was added to an intermediate plate, and then 2 μL per well of the serially diluted compounds were transferred to the corresponding positions on the intermediate plate, after mixing, 10 μL per well was transferred to the cell plate. The cell plate was incubated in a carbon dioxide incubator for 6 days. Another cell plate was prepared and the signal value on the day of dosing was read as the maximum value (Max value in the equation below) to participate in the data analysis. 20 μL of chemiluminescent cell viability assay reagent was added to each well of this cell plate, which was incubated at room temperature for 10 minutes to stabilize the luminescence signal. The multi-label reader was used for reading.
(§1) Data analysis: the equation (Sample-Min)/(Max-Min)*100% was used to convert the original data into the inhibition rate, the IC50 value can be obtained by curve fitting of four-parameters (“log(inhibitor) vs. response—Variable slope” mode in GraphPad Prism)).

Data set [4] deals with MV-4-11 cells. Put plainly: Antiproliferation activity on MV-4-11 cells (CellTiter-Glo, 6 days). It counts as cell-based. As to conditions: incubated for 6 days.
Excerpt: Experimental purpose: to detect the antiproliferation activity of the compound to be tested on MV-4-11 cells.
Experimental materials: IMDM culture medium, fetal bovine serum, penicillin/streptomycin antibiotics purchased from Wisent. CellTiter-Glo (chemiluminescent cell viability assay reagent) reagents purchased from Promega. MV-4-11 cell line was purchased from Nanjing Cobioer Co., Ltd. Nivo Multi-Marker Analyzer (PerkinElmer).
Experimental method: MV-4-11 cells were planted in a white 96-well plate, 80 μL of cell suspension per well, which contained 6000 MV-4-11 cells. The cell plate was placed in a carbon dioxide incubator for overnight culture.
The compounds to be tested were diluted 5-fold with a pipet until the 8th concentration, i.e., diluted from 2 mM to 25.6 nM, double duplicate well experiment was set. 78 μL of the culture medium was added to an intermediate plate, and then 2 μL per well of the serially diluted compounds were transferred to the corresponding positions on the intermediate plate, after mixing, 20 μL per well was transferred to the cell plate. The cell plate was incubated in a carbon dioxide incubator for 6 days. Another cell plate was prepared and the signal value on the day of dosing was read as the maximum value (Max value in the equation below) to participate in the data analysis. 25 μL of the chemiluminescent cell viability assay reagent was added to each well of this cell plate, which was incubated at room temperature for 10 minutes to stabilize the luminescence signal. The multi-label analyzer was used for reading.
as §1

A short description of data set [5]: In vivo pharmacokinetics in CD-1 mice. As to conditions: male CD-1 mice; for half-life / clearance / Vd: iv; for half-life / clearance / Vd / Half-life T1/2 (IV): 1 mg/kg; for half-life / Half-life T1/2 (IV): IV 1 mg/kg; for half-life: read-out: Half-life T1/2 (IV) (converted); for clearance / Vd / Cmax / Clearance CL / Volumes of distribution Vdss: study doses 1 mg/kg intravenous, 2 mg/kg oral; for clearance: read-out: Clearance CL; for Vd: read-out: Volumes of distribution Vdss; for Cmax: route not given, read-out: Max concentration Cmax; for AUC(0-t) / bioavailability: po; for AUC(0-t) / bioavailability / The area under the plasma concentration-time curve AUC0-last PO: 2 mg/kg; for AUC(0-t) / The area under the plasma concentration-time curve AUC0-last PO: PO 2 mg/kg; for AUC(0-t): read-out: The area under the plasma concentration-time curve AUC0-last PO; for bioavailability / Bioavailability F: oral 2 mg/kg vs intravenous 1 mg/kg; for bioavailability: read-out: Bioavailability F. Here is the method:
CD-1 mice (male, 7-9 weeks old, Shanghai Slac)
The rodent pharmacokinetic characteristics after intravenous injection and oral administration of the compounds were tested by standard protocols, in the experiment, the candidate compounds were formulated into clear solutions and administrated to mice via a single intravenous injection and oral administration. The vehicle for intravenous injection and oral administration was a mixed solution of 10% of dimethyl sulfoxide and 90% of 10% hydroxypropyl β cyclodextrin. This project used four male CD-1 mice, two mice were administered intravenously, with a dose of 1 mg/kg, and plasma samples were collected at 0 hour (before administration) and 0.0833, 0.25, 0.5, 1, 2, 4, 8, 24 hours after administration. The other two mice were orally administered by gavage, with a dose of 2 mg/kg, plasma samples were collected at 0 hour (before administration) and 0.25, 0.5, 1, 2, 4, 8, 24 hours after administration, whole blood samples were collected within 24 hours, which were centrifuged at 3000 g for 15 minutes, and the supernatants were separated to obtain plasma samples, 4 times volume of acetonitrile solutions containing internal standard were added to precipitate the protein, the mixtures were centrifuged to obtain the supernatants, the supernatants were added with water of equal volume and centrifuged again to take the supernatant for injection, and the blood drug concentration was quantitatively analyzed by the LC-MS/MS analysis method, and pharmacokinetic parameters were calculated, such as max concentration (Cmax), clearance (CL), half-life (T1/2), volumes of distribution (Vdss), the area under the plasma concentration-time curve (AUC0-last), bioavailability (F) etc.

Regarding `NC1(C(=O)N2CCC3(CC2)CC(N[C@@H]2C[C@H]2c2ccccc2)CO3)CC1` (stereo partly drawn) [Hydrochloride of the compound 34], in data set [1], 38.4 nM corresponded to half-maximal inhibition (IC50). This compound also gave a half-inhibitory concentration (IC50) in data set [2] (Homo sapiens, NCI-H1417, 240 h) of 4.38 nM. In addition, in data set [3] (Homo sapiens, HL-60, 144 h), 1.92 nM corresponded to half-maximal inhibition (IC50). In addition, the IC50 in data set [4] (Homo sapiens, MV4-11, 144 h) was 1.37 nM. In addition, in data set [5] (male, CD-1, mouse, plasma), the half-life was 83.4 min, the clearance stood at 25.3 mL/min/kg, the Vd stood at 2.09 L/kg and the Cmax was determined as 1150 nM. For the same compound, in data set [5] (male, CD-1, mouse, plasma), the AUC(0-t) is 2.14 µM·h and the bioavailability was 58.3%.
For `O=C(O)c1ccc(CN2CCC3(CC2)CC(N[C@@H]2C[C@H]2c2ccccc2)CO3)cc1` (stereo partly drawn) [Hydrochloride of the compound 15], 353 nM corresponded to half-maximal inhibition in data set [1] (IC50). In data set [2], this compound came in with an IC50 of 13.1 nM. Further, in data set [3], it took 13.8 nM to reach half-maximal inhibition (IC50). Besides, the midpoint of inhibition in data set [4], the IC50, lay at 13.2 nM. In data set [5], the “Half-life T1/2 (IV)” value was found to be 29.4 min, the “The area under the plasma concentration-time curve AUC0-last PO” value stood at 765 nM·h, the “Bioavailability F” value was determined as 39.1% and the “Clearance CL” value is on record as 41.8 mL/min/kg. Also, in data set [5], the “Volumes of distribution Vdss” value worked out at 0.835 L/kg and the Cmax was 919 nM.
Consider `O=C(O)CC1(N2CCC3(CC2)CC(N[C@@H]2C[C@H]2c2ccccc2)CO3)CNC1` (stereo partly drawn) [Hydrochloride of the compound 32], for which the 50% inhibitory concentration (IC50) stood at 1160 nM in data set [1]; 3.97 nM in data set [2] (Homo sapiens, NCI-H1417, 240 h); 0.55 nM in data set [3] (Homo sapiens, HL-60, 144 h); 1.9 nM in data set [4] (Homo sapiens, MV4-11, 144 h).
Take `O=C(O)c1ccc(CN2CCC3(CC2)CC(N[C@@H]2C[C@H]2c2ccccc2)CO3)cc1` (stereo partly drawn) [Hydrochloride of the compound 16]: the IC50 in data set [1] stood at 262 nM. It took 12.1 nM to reach half-maximal inhibition in data set [2] (Homo sapiens, NCI-H1417, 240 h) (IC50). Also, the IC50 in data set [3] (Homo sapiens, HL-60, 144 h) came out at 8.46 nM. This compound also came in with a 50% inhibitory concentration (IC50) in data set [4] of 13.7 nM. For the same compound, in data set [5], the “Half-life T1/2 (IV)” value worked out at 34.7 min, the “The area under the plasma concentration-time curve AUC0-last PO” value amounted to 891 nM·h, the “Bioavailability F” value worked out at 36.9% and the “Clearance CL” value is 33.8 mL/min/kg. In data set [5], the “Volumes of distribution Vdss” value is recorded as 0.88 L/kg and the Cmax worked out at 860 nM.
With `O=C(O)C1(CN2CCC3(CC2)CC(N[C@@H]2C[C@H]2c2ccccc2)CO3)CCC1` (stereo partly drawn) [Hydrochloride of the compound 30], the IC50 was found to be 1140 nM in data set [1]; 91.4 nM in data set [2] (Homo sapiens, NCI-H1417, 240 h); 337 nM in data set [3] (Homo sapiens, HL-60, 144 h); 33.1 nM in data set [4] (Homo sapiens, MV4-11, 144 h).
The like results for `O=C(O)c1ccc(CCN2CCC3(CC2)CC(N[C@@H]2C[C@H]2c2ccccc2)CO3)cc1` (stereo partly drawn) [Hydrochloride of the compound 19] were, in that order, 208 nM, 6.95 nM, 1.46 nM and 4.41 nM.
Take `O=C(O)c1ccc2cc(CN3CCC4(CC3)CC(N[C@@H]3C[C@H]3c3ccccc3)CO4)ccc2c1` (stereo partly drawn) [Hydrochloride of the compound 17]: the IC50 in data set [1] worked out at 70.6 nM; in data set [2] (Homo sapiens, NCI-H1417, 240 h) it was 0.65 nM; in data set [3] (Homo sapiens, HL-60, 144 h) it was 0.78 nM; in data set [4] (Homo sapiens, MV4-11, 144 h), 2.86 nM.
For the compound `O=C(O)c1ccc(CN2CCC3(CC2)CC(N[C@@H]2C[C@H]2c2ccccc2)CO3)cn1` (stereo partly drawn) [Hydrochloride of the compound 20], the IC50 in data set [1] was determined as 242 nM. The same compound registered an IC50 in data set [2] (Homo sapiens, NCI-H1417, 240 h) of 3.99 nM. The compound also yielded an IC50 in data set [3] (Homo sapiens, HL-60, 144 h) of 8.99 nM. The compound further showed an IC50 in data set [4] (Homo sapiens, MV4-11, 144 h) of 9.56 nM. In addition, in data set [5] (male, CD-1, mouse, plasma), the half-life was 54.3 min, the clearance is 19.7 mL/min/kg, the Vd was determined as 0.752 L/kg and the Cmax was 714 nM. For the same compound, in data set [5] (male, CD-1, mouse, plasma), the AUC(0-t) came to 1.34 µM·h and the bioavailability was determined as 29%.
Turning to `N#Cc1ccc(CN2CCC3(CC2)CC(N[C@@H]2C[C@H]2c2ccccc2)CO3)cc1` (stereo partly drawn) [Hydrochloride of the compound 21], the IC50 stood at 92.2 nM in data set [1]; 1.12 nM in data set [2] (Homo sapiens, NCI-H1417, 240 h); 1.17 nM in data set [3] (Homo sapiens, HL-60, 144 h); 0.46 nM in data set [4] (Homo sapiens, MV4-11, 144 h).
